Like-named read-outs stand apart in the source and are kept apart here.
How the values were obtained:
human EP2 receptor = target: T1, human EP2 receptor (Homo sapiens, UniProt P43116); experiment: Measurement of EP2 agonist activity (cAMP concentration) in EP2-CHO cells; format: cell-based
T1 construct: expressed in transfected cells; host or cells: CHO cells (EP2-CHO)
Protocol: (1) Measurement of Agonist Activity on Various Prostanoid Receptors
Using Chem1 cells or CHO cells in which various prostanoid receptors were forcibly expressed, respectively, agonist activities of test compounds on various prostanoid receptors was determined employing, as a measure, an intracellular cyclic AMP (hereinbelow, abbreviated as “cAMP”) production amount or an intracellular calcium concentration.
Each of the test compound and a control substance (PGE2 and PGF2α) was dissolved in dimethyl sulfoxide (DMSO) to prepare a 10 mmol/L solution. The 10 mmol/L solution thus prepared was thawed upon use, was then serially diluted with DMSO, and was then diluted with a buffered solution for measurement or a buffered solution for measurement 2, and then the resulting solution was subjected to an experiment.
Cells, in which various prostanoid receptors were respectively forcibly expressed, were subjected to static culture at 37° C. in the presence of 5% CO2 using a DMEM medium (Sigma) (for culturing FP-Chem1 cells) containing inactivated (56° C., 30 minutes) 9.8 vol % nondialysed-FBS (Life Technologies), 1 vol % Non Essential Amino Acids (Life Technologies), 10 mmol/L HEPES Buffered solution (Life Technologies), 0.5 vol % GENETICIN (Life Technologies) and 1% penicillin-streptomycin (Life Technologies) or an α-MEM medium (Sigma) (for culturing EP2-CHO cells) containing inactivated (56° C., 30 minutes) 9.8 vol % dialysed-FBS (Life Technologies) and penicillin-streptomycin-glutamine (Life Technologies). Subculturing was carried out in the following manner.
The medium was removed from a culture, and the culture was washed with Ca^2+-free and Mg^2+-free phosphate-buffered physiological saline one time. A proper amount of trypsin-EDTA (Life Technologies) was added to the washed product, and then the resultant product was incubated at 37° C. The cells were detached, and then a medium in a volume that is 10-fold the volume of trypsin-EDTA was added thereto to terminate the enzymatic reaction. The cells were collected in a centrifuge tube and then centrifuged at room temperature at 120 g for 3 minutes, and the supernatant was discarded therefrom. The cells were suspended in a proper amount of the medium and seeded in a culture flask.
On the day of measurement, a medium was removed and EP2-CHO cells were washed one time with a phosphate-buffered physiological saline containing 2 mmol/L EDTA and not containing Ca^2+ and Mg^2+. A proper amount of the phosphate-buffered physiological saline containing 2 mmol/L EDTA and not containing Ca^2+ and Mg^2+ was added to the cells, and this was incubated at 37° C. in the presence of 5% CO2. Subsequently, the cells were detached, then collected in a centrifuge tube and then centrifuged at room temperature at 550 g for 3 minutes, and the supernatant was removed therefrom. The cells were suspended in a proper amount of a buffered solution for measurement 1 (a MEM medium (Invitrogen) containing 1.0 w/v % of bovine serum albumin (Sigma) and 2 μmol/L of diclofenac (Sigma)), and the suspension was centrifuged at room temperature at 200 g for 3 minutes, and the supernatant was removed. The cells were suspended in a buffered solution for measurement 2 (MEM medium (Invitrogen) containing 1.0 w/v % of bovine serum albumin (Sigma), 2 μmol/L of diclofenac (Sigma) and 1 mmol/L of 3-isobutyl-1-methylxanthine), and each 25 μL of the suspension was dispensed into a 96-well ½ area plate so that the number of cells per well became […]. The buffered solution for measurement 2 (25 μL) containing a compound at each of various concentrations was added to each well to carry out a reaction at room temperature for 30 minutes. Measurement of a cAMP concentration was carried out using cAMP HTRF HiRange kit (CIS bio International). In accordance with the two-step protocol of the kit manual, each 25 μL of cAMP-D2 and Cryptase each diluted with a lysis buffer were added. […]

[1] = Intraocular pressure lowering activity after ocular instillation in rabbit; format: in vivo; conditions: male rabbit (NZW), ocular instillation 30 μL, administration concentration 10 μg/mL, 8 hours after the administration
Protocol: As can be easily understood by a person skilled in the art, in an in vivo test, since regarding all test compounds, carboxylic acid which is an active body has poor corneal permeability, pharmacological action of the active body was evaluated by ocular instillation administration of a compound which had been converted into an ester such as an ethyl ester or an isopropyl ester, or an alcohol.
A test compound-containing solution (30 μL) which had been adjusted to each of various concentrations was ocular instillation-administered to the left or right eye of a male rabbit (NZW (Healthy)) under consciousness, and an intraocular pressure was measured before the administration and 8 hours after the administration. An intraocular pressure before the administration was measured on a day before the administration. In measurement of an intraocular pressure, the rabbit was fixed on a wood-made restrainer, and the rabbit was anesthetized by the ocular instillation-administration of an ocular surface anesthetic agent (Benoxil eye drops 0.4%, Santen Pharmaceutical Co., Ltd.). After fitting a blepharostat (Handaya Co., Ltd.) to the rabbit, intraocular pressures of both eyes were measured (6 cases per group) with a pneumatic applanation flat tonometer (Model 30 Classic, REICHERT). A difference between an intraocular pressure value before the administration of a test compound and an intraocular pressure value after the administration of the test compound was calculated as an intraocular pressure lowering rate in accordance with the equation shown below, and the sustainability of intraocular eye lowering action was evaluated.
The administered concentrations were selected on the basis of the EP2 agonist activities measured by the above-mentioned method.

[2] = EP2-CHO cells, cAMP production, 30 minutes at room temperature, read-out: EC50 (agonist activity on human EP2 receptor)
[3] = comparison compounds from prior art documents, read-out: EC50 (EP2 agonist activity) of prior art compounds with analogous structure

T1 sequence (P43116 whole entry): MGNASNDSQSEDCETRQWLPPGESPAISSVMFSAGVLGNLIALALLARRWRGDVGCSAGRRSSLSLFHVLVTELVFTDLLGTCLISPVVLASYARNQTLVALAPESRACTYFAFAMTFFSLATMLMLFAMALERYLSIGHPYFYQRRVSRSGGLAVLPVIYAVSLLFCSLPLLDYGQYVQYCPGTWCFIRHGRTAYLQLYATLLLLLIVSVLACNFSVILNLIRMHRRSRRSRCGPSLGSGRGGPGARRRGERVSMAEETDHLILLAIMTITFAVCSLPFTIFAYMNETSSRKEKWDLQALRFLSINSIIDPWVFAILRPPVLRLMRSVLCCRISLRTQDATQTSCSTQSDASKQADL

| SMILES | EC50 (human EP2 receptor; [2]) | also measured |
| --- | --- | --- |
| COc1ccc(OCCC/C=C/[C@@H]2[C@H]3CC[C@H](c4nc(C(=O)O)cs4)O[C@H]3C[C@H]2O)cc1 [Example 2-1, 2-{(2R,4aR,5R,6R,7aS)-6-Hydroxy-5-[(1E)-5-(4-methoxyphenoxy)-1-penten-1-yl]octahydrocyclopenta[b]pyran-2-yl}-1,3-thiazole-4-carboxylic acid] | 1.8 nM | – |
| O=C(O)c1csc([C@H]2CC[C@@H]3[C@@H](/C=C/CCOc4ccccc4)[C@H](O)C[C@@H]3O2)n1 [Example 2-2, 2-{(2R,4aR,5R,6R,7aS)-6-Hydroxy-5-[(1E)-4-phenoxy-1-buten-1-yl]octahydrocyclopenta[b]pyran-2-yl}-1,3-thiazole-4-carboxylic acid] | 3.9 nM | – |
| O=C(O)c1csc([C@H]2CC[C@@H]3[C@@H](/C=C/CCCOc4ccccc4)[C@H](O)C[C@@H]3O2)n1 [Example 2-4, 2-{(2R,4aR,5R,6R,7aS)-6-Hydroxy-5-[(1E)-5-phenoxy-1-penten-1-yl]octahydrocyclopenta[b]pyran-2-yl}-1,3-thiazole-4-carboxylic acid] | 14 nM | – |
| Cc1ccc(OC/C=C/[C@@H]2[C@H]3CC[C@H](c4nc(C(=O)O)cs4)O[C@H]3C[C@H]2O)cc1 [Example 2-9, 2-{(2R,4aR,5R,6R,7aS)-6-Hydroxy-5-[(1E)-3-(4-methylphenoxy)-1-propen-1-yl]octahydrocyclopenta[b]pyran-2-yl}-1,3-thiazole-4-carboxylic acid] | 5.8 nM | – |
| O=C(O)c1csc([C@H]2CC[C@@H]3[C@@H](/C=C/COc4ccccc4C(F)(F)F)[C@H](O)C[C@@H]3O2)n1 [Example 2-16, 2-[(2R,4aR,5R,6R,7aS)-6-Hydroxy-5-{(1E)-3-[2-(trifluoromethyl)phenoxy]-1-propen-1-yl}octahydrocyclopenta[b]pyran-2-yl]-1,3-thiazole-4-carboxylic acid] | 1.3 nM | – |
| COc1ccc(OCCC/C=C/[C@@H]2[C@H]3CC[C@H](c4nc(C(=O)OC(C)C)cs4)O[C@H]3C[C@H]2O)cc1 [Example 4, Isopropyl 2-{(2R,4aR,5R,6R,7aS)-6-hydroxy-5-[(1E)-5-(4-methoxyphenoxy)-1-penten-1-yl]octahydrocyclopenta[b]pyran-2-yl}-1,3-thiazole-4-carboxylate] | – | Intraocular pressure lowering rate (%) [1]: 19.1% |
| CC(C)OC(=O)c1csc([C@H]2CC[C@@H]3[C@@H](/C=C/COc4ccccc4C(F)(F)F)[C@H](O)C[C@@H]3O2)n1 [Example 4-3, Isopropyl 2-[(2R,4aR,5R,6R,7aS)-6-hydroxy-5-{(1E)-3-[2-(trifluoromethyl)phenoxy]-1-propen-1-yl}octahydrocyclopenta[b]pyran-2-yl]-1,3-thiazole-4-carboxylate] | – | Intraocular pressure lowering rate (%) [1]: 12.1% |
| CCCCCC(F)(F)/C=C/[C@@H]1[C@H]2CC[C@H](c3nc(C(=O)O)cs3)O[C@H]2C[C@H]1O [Example 8, 2-{(2R,4aR,5R,6R,7aS)-5-[(1E)-3,3-Difluoro-1-octen-1-yl]-6-hydroxyoctahydrocyclopenta[b]pyran-2-yl}-1,3-thiazole-4-carboxylic acid] | 0.4 nM | – |
| N#Cc1ccc(CCC(O)/C=C/[C@@H]2[C@H]3CC[C@H](c4nc(C(=O)O)cs4)O[C@H]3C[C@H]2O)cc1 (stereo partly drawn) [Example 10, 2-{(2R,4aR,5R,6R,7aS)-5-[(1E)-5-(4-Cyanophenyl)-3-hydroxy-1-penten-1-yl]-6-hydroxyoctahydrocyclopenta[b]pyran-2-yl}-1,3-thiazole-4-carboxylic acid] | 0.29 nM | – |
| Cc1cc(OCC[C@@H]2[C@H]3CC[C@H](c4nc(C(=O)OC(C)C)cs4)O[C@H]3C[C@H]2O)ccc1[N+](=O)[O-] [Example 14, Isopropyl 2-{(2R,4aR,5R,6R,7aS)-6-hydroxy-5-[2-(3-methyl-4-nitrophenoxy)ethyl]octahydrocyclopenta[b]pyran-2-yl}-1,3-thiazole-4-carboxylate] | – | Intraocular pressure lowering rate (%) [1]: 23.6% |
| O=C(O)c1csc([C@H]2CC[C@@H]3[C@@H](/C=C/[C@@H](O)COc4ccccc4)[C@H](O)C[C@@H]3OC2)n1 [reference compound] | – | EC50 (human EP2 receptor; [3]): ≥ 10000 nM |
| O=C(O)c1ccc(C2=CC[C@@H]3[C@@H](/C=C/[C@@H](O)C4CCCC4)[C@H](O)C[C@@H]3O2)o1 [reference compound] | – | EC50 (human EP2 receptor; [3]): ≥ 10000 nM |
| CCCCC[C@H](O)/C=C/[C@@H]1[C@H]2CCC(c3ccccc3CC(=O)O)O[C@H]2C[C@H]1O (stereo partly shown) [reference compound] | – | EC50 (human EP2 receptor; [3]): ≥ 10000 nM |

Continued, in another order:

| EC50 (human EP2 receptor; [2]) | SMILES | also measured |
| --- | --- | --- |
| 0.11 nM | O=C(O)c1csc([C@H]2CC[C@@H]3[C@@H](/C=C/C(O)CCC4CCCC4)[C@H](O)C[C@@H]3O2)n1 (stereo partly drawn) [Example 10-3, 2-{(2R,4aR,5R,6R,7aS)-5-[(1E)-5-Cyclopentyl-3-hydroxy-1-penten-1-yl]-6-hydroxyoctahydrocyclopenta[b]pyran-2-yl}-1,3-thiazole-4-carboxylic acid] | – |
| 0.1 nM | CCC1([C@@H](O)C/C=C/[C@@H]2[C@H]3CC[C@H](c4nc(C(=O)O)cs4)O[C@H]3C[C@H]2O)CCC1 [Example 11-2, 2-{(2R,4aR,5R,6R,7aS)-5-[(1E,4S)-4-(1-Ethylcyclobutyl)-4-hydroxy-1-buten-1-yl]-6-hydroxyoctahydrocyclopenta[b]pyran-2-yl}-1,3-thiazole-4-carboxylic acid] | – |
| 5.7 nM | Cc1cc(OCC[C@@H]2[C@H]3CC[C@H](c4nc(C(=O)O)cs4)O[C@H]3C[C@H]2O)ccc1[N+](=O)[O-] [Example 13-20, 2-{(2R,4aR,5R,6R,7aS)-6-Hydroxy-5-[2-(3-methyl-4-nitrophenoxy)ethyl]octahydrocyclopenta[b]pyran-2-yl}-1,3-thiazole-4-carboxylic acid] | – |
